In PubChem BioAssay (NCI):
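Test compounds were applied to cells in 96-well plates for 48 hours at 5 doses. TGI is the concentration that stops growth completely.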

Key:
Experiment in all cases: NCI anticancer screen, dose series, 48 h
786-0 renal = system: 786-0 renal
A498 renal = system: A498 renal
A549 NSCLC = system: A549 NSCLC
ACHN renal = system: ACHN renal
BT-549 breast = system: BT-549 breast
CCRF-CEM leukemia = system: CCRF-CEM leukemia
DU-145 prostate = system: DU-145 prostate
EKVX NSCLC = system: EKVX NSCLC
HCC-2998 colon = system: HCC-2998 colon
HCT-116 colon = system: HCT-116 colon
HCT-15 colon = system: HCT-15 colon
HL-60(TB) leukemia = system: HL-60(TB) leukemia
HOP-92 NSCLC = system: HOP-92 NSCLC
HS 578T breast = system: HS 578T breast
HT29 colon = system: HT29 colon
IGROV1 ovarian = system: IGROV1 ovarian
K-562 leukemia = system: K-562 leukemia
LOX IMVI melanoma = system: LOX IMVI melanoma
M14 melanoma = system: M14 melanoma
MALME-3M melanoma = system: MALME-3M melanoma
MDA-MB-435 = system: MDA-MB-435
MDA-N = system: MDA-N
MOLT-4 leukemia = system: MOLT-4 leukemia
NCI-H226 lung = system: NCI-H226 lung
NCI-H23 lung = system: NCI-H23 lung
NCI-H460 lung = system: NCI-H460 lung
NCI/ADR-RES ovarian = system: NCI/ADR-RES ovarian
OVCAR-4 ovarian = system: OVCAR-4 ovarian
OVCAR-8 ovarian = system: OVCAR-8 ovarian
PC-3 prostate = system: PC-3 prostate
RPMI-8226 leukemia = system: RPMI-8226 leukemia
RXF 393 renal = system: RXF 393 renal
SF-268 CNS = system: SF-268 CNS
SF-295 CNS = system: SF-295 CNS
SF-539 CNS = system: SF-539 CNS
SK-MEL-28 melanoma = system: SK-MEL-28 melanoma
SK-MEL-5 melanoma = system: SK-MEL-5 melanoma
SN12C renal = system: SN12C renal
SNB-19 CNS = system: SNB-19 CNS
SR leukemia = system: SR leukemia
SW-620 colon = system: SW-620 colon
TK-10 renal = system: TK-10 renal
U251 CNS = system: U251 CNS
UACC-257 melanoma = system: UACC-257 melanoma
UO-31 renal = system: UO-31 renal
COLO 205 colon = system: COLO 205 colon
HOP-62 NSCLC = system: HOP-62 NSCLC
KM12 colon = system: KM12 colon
MCF7 breast = system: MCF7 breast
MDA-MB-231 breast = system: MDA-MB-231 breast
NCI-H522 lung = system: NCI-H522 lung
OVCAR-3 ovarian = system: OVCAR-3 ovarian
OVCAR-5 ovarian = system: OVCAR-5 ovarian
SK-MEL-2 melanoma = system: SK-MEL-2 melanoma
SK-OV-3 ovarian = system: SK-OV-3 ovarian
SNB-75 CNS = system: SNB-75 CNS
UACC-62 melanoma = system: UACC-62 melanoma

What does the source list for CC(C)(C)OC(=O)C1C(=O)NC(=O)CC1CC(OCc1ccccc1)C(COCc1ccccc1)OCc1ccccc1 (stereo not given)?
TGI (786-0 renal): > 100 µM; TGI (A498 renal): > 100 µM; TGI (A549 NSCLC): > 100 µM; TGI (ACHN renal): 70.4 µM; TGI (BT-549 breast): 32.8 µM; TGI (CCRF-CEM leukemia): > 100 µM; TGI (DU-145 prostate): 80.6 µM; TGI (EKVX NSCLC): > 100 µM; TGI (HCC-2998 colon): 50.4 µM; TGI (HCT-116 colon): > 100 µM; TGI (HCT-15 colon): 39.1 µM; TGI (HL-60(TB) leukemia): 4.34 µM; TGI (HOP-92 NSCLC): 46.2 µM; TGI (HS 578T breast): 66.6 µM; TGI (HT29 colon): 14.3 µM; TGI (IGROV1 ovarian): > 100 µM; TGI (K-562 leukemia): > 100 µM; TGI (LOX IMVI melanoma): 25.5 µM; TGI (M14 melanoma): > 100 µM; TGI (MALME-3M melanoma): 11.5 µM; TGI (MDA-MB-435): 20.7 µM; TGI (MDA-N): 79.1 µM; TGI (MOLT-4 leukemia): 13.1 µM; TGI (NCI-H226 lung): 93.3 µM; TGI (NCI-H23 lung): 45.7 µM; TGI (NCI-H460 lung): > 100 µM; TGI (NCI/ADR-RES ovarian): 82.8 µM; TGI (OVCAR-4 ovarian): > 100 µM; TGI (OVCAR-8 ovarian): > 100 µM; TGI (PC-3 prostate): 37.7 µM; TGI (RPMI-8226 leukemia): 15.8 µM; TGI (RXF 393 renal): 8.95 µM; TGI (SF-268 CNS): > 100 µM; TGI (SF-295 CNS): > 100 µM; TGI (SF-539 CNS): 39.8 µM; TGI (SK-MEL-28 melanoma): > 100 µM; TGI (SK-MEL-5 melanoma): 27.5 µM; TGI (SN12C renal): > 100 µM; TGI (SNB-19 CNS): > 100 µM; TGI (SR leukemia): 25 µM; TGI (SW-620 colon): > 100 µM; TGI (TK-10 renal): > 100 µM; TGI (U251 CNS): 24.8 µM; TGI (UACC-257 melanoma): 53.4 µM; TGI (UO-31 renal): 6.02 µM

For C/C1=C\[C@H](C)C[C@H](C)OC(=O)C[C@H](c2ccc(O)cc2)NC(=O)[C@H](Cc2ccc(O)c(I)c2)N(C)C(=O)[C@H](C)NC(=O)[C@@H](C)C1, which TGI (786-0 renal) is on record?
Its TGI is > 25 µM.

And the TGI (A498 renal)?
Its TGI is 0.0948 µM.

And the TGI (A549 NSCLC)?
The TGI was > 25 µM.

What about the TGI (ACHN renal) of the same molecule?
The TGI was > 25 µM.

And the TGI (CCRF-CEM leukemia)?
Its TGI is > 25 µM.

What about the TGI (COLO 205 colon) of the same molecule?
The TGI was > 25 µM.

What about the TGI (DU-145 prostate) of the same molecule?
Its TGI is > 25 µM.

And the TGI (EKVX NSCLC)?
Its TGI is 6.84 µM.

And the TGI (HCT-116 colon)?
The TGI was 18.6 µM.

And the TGI (HCT-15 colon)?
The TGI was > 25 µM.

What about the TGI (HOP-62 NSCLC) of the same molecule?
Its TGI is > 25 µM.

What about the TGI (HOP-92 NSCLC) of the same molecule?
The TGI was 0.118 µM.

What about the TGI (HS 578T breast) of the same molecule?
The TGI was 0.245 µM.

What about the TGI (HT29 colon) of the same molecule?
Its TGI is > 25 µM.

What about the TGI (IGROV1 ovarian) of the same molecule?
The TGI was > 25 µM.

What about the TGI (K-562 leukemia) of the same molecule?
The TGI was > 25 µM.

What about the TGI (KM12 colon) of the same molecule?
The TGI was > 25 µM.

What about the TGI (LOX IMVI melanoma) of the same molecule?
Its TGI is > 25 µM.

And the TGI (M14 melanoma)?
Its TGI is > 25 µM.

And the TGI (MALME-3M melanoma)?
Its TGI is 3.06 µM.

And the TGI (MCF7 breast)?
The TGI was > 25 µM.

What about the TGI (MDA-MB-231 breast) of the same molecule?
Its TGI is 0.433 µM.

What about the TGI (MDA-MB-435) of the same molecule?
The TGI was 5.18 µM.

And the TGI (MDA-N)?
Its TGI is 13.8 µM.

What about the TGI (MOLT-4 leukemia) of the same molecule?
The TGI was > 25 µM.

And the TGI (NCI-H226 lung)?
Its TGI is > 25 µM.

What about the TGI (NCI-H23 lung) of the same molecule?
Its TGI is > 25 µM.

And the TGI (NCI-H522 lung)?
Its TGI is > 25 µM.

And the TGI (NCI/ADR-RES ovarian)?
The TGI was 18.8 µM.

And the TGI (OVCAR-3 ovarian)?
Its TGI is > 25 µM.

And the TGI (OVCAR-4 ovarian)?
The TGI was 0.0186 µM.

And the TGI (OVCAR-5 ovarian)?
The TGI was > 25 µM.

And the TGI (OVCAR-8 ovarian)?
The TGI was 3.45 µM.

What about the TGI (PC-3 prostate) of the same molecule?
Its TGI is > 25 µM.

And the TGI (RPMI-8226 leukemia)?
The TGI was > 25 µM.

What about the TGI (SF-268 CNS) of the same molecule?
The TGI was 0.153 µM.

And the TGI (SF-295 CNS)?
Its TGI is > 25 µM.

And the TGI (SK-MEL-2 melanoma)?
The TGI was 6.78 µM.

What about the TGI (SK-MEL-28 melanoma) of the same molecule?
The TGI was > 25 µM.

And the TGI (SK-MEL-5 melanoma)?
Its TGI is 11.1 µM.

What about the TGI (SK-OV-3 ovarian) of the same molecule?
The TGI was 16.9 µM.

And the TGI (SN12C renal)?
Its TGI is 22.9 µM.

And the TGI (SNB-19 CNS)?
The TGI was > 25 µM.

And the TGI (SNB-75 CNS)?
Its TGI is 10.3 µM.

What about the TGI (SR leukemia) of the same molecule?
Its TGI is > 25 µM.

And the TGI (SW-620 colon)?
Its TGI is > 25 µM.

What about the TGI (TK-10 renal) of the same molecule?
The TGI was > 25 µM.

And the TGI (U251 CNS)?
Its TGI is 6.9 µM.

And the TGI (UACC-62 melanoma)?
Its TGI is 8.77 µM.

And the TGI (UO-31 renal)?
Its TGI is 0.185 µM.
